Assay results reported in patent US20120003655A1, “IDENTIFICATION OF NEUROPROTECTIVE AGENTS USING PRO-INFLAMMATORY HUMAN GLIAL CELLS” (The Salk Institute for Biological Studies, priority 2008, published 2012).
Entries after “also recorded” stand apart in the source; their conditions may differ.

What was measured:
primary human astrocytes = test: qPCR of IL1b-induced genes in primary human astrocytes; format: cell-based; details: 1 μM for 1 hour, then 10 ng/ml IL1b 6 hours; qPCR normalized against HPRT
Procedure: (§1) FIGS. 31A-F show indazol-estrogen suppression of the inflammation in human primary microglia and astrocytes. Primary human microglia (FIGS. 31A-C) and primary human atrocities (FIGS. 31D-E) were treated with Indazol-Estrogen-Bromide (Br), Indazol-Estrogen-Chloride (Cl), 17β-Estradiol (E2) or vehicle (ethanol:EtOH) for 1 hour followed by […] LPS stimulation for 6 hours (black column: 6 hr) or no LPS treatment (white column: Ohr). Normalized mRNA expression against HPRT of IL1β (FIG. 31A), IL23p19 (FIG. 31B), TGFβ (FIG. 31C) in microglia cells and BAFF (FIG. 31D), IL23p19 (FIG. 31E), iNOS (FIG. 31F) in astrocytes were determined using quantitative PCR. Primary human microglia and astrocytes were treated with 1 μM Indazol-Estrogen-Bromide (Br), 1 μM Indazol-Estrogen-Chloride (C1), 1 μM17β-Estradiol (E2) or vehicle (ethanol:EtOH) for 1 hour as a final concentration. Then microglia cells were stimulated with 0.1 μg/ml LPS and astrocytes were stimulated with 10 ng/ml IL1b for 6 hours. mRNA were purified and cDNA were generated by reverse transcriptase reaction. To determine the effect of ERβ-specific ligands in microglia and astrocytes-mediated inflammation, the activation of several genes induced by LPS in microglia or by IL1b in astrocytes were determined by QPCR normalized against HPRT.

primary human microglia = test: qPCR of LPS-induced genes in primary human microglia; format: cell-based; details: 1 μM for 1 hour, then 0.1 μg/ml LPS 6 hours; qPCR normalized against HPRT
Procedure: as §1

[1] = tested on: SOD^G37R mutated astrocyte cultures; test: Detection of ROS production in SOD1 G37R astrocytes after anti-oxidant treatment; format: cell-based, human; details: 48 hours treatment, vs vehicle (EtOH or DMSO); apocynin 300 μM, alpha lipoic acid 50 μg/mL, epicatechin 10 μM, luteolin 5 μM, resveratrol 5 μM
Procedure: Primary astrocyte culture. Human primary astrocytes (HA1800) were obtained from ScienCell Research Laboratories™ (Carlsbad, Calif.) and were cultured according to the providers' guidelines. Briefly, the astrocytes were isolated from fetal human brain (cerebral cortex) and cultured for no more than 15 passages in astrocyte media (AM 1801). The infections were performed in 80% confluent T75 flasks followed by incubation with the lentivirus expressing either the wild type of SOD1 (LV-SOD1^wT) or the mutated form of SOD1 (LV-SOD1^G37R).
Detection of ROS production. Detection of total cellular ROS was performed using the Image-iT LIVE Green reactive Oxygen Species Detection Kit, according to the manufacturer's directions (Molecular Probes, Invitrogen). Briefly, this assay is based on the principle that the live cell permeable compound, carboxy-H2DCFDA, emits a bright green fluorescence when it is oxidized in the presence of ROS. The quantification of the ROS production was addressed in 2 ways: 1) counting the number of fluorescent cells and 2) measuring the intensity of the fluorescence emitted by the cells. The relative fluorescence intensity (arbitrary units ranging from 0 to 255, or black to white) was measured in randomly selected fields for each treatment and was analyzed and quantified using ImageProPlus software.
Anti-oxidants treatment. Anti-oxidants stock solutions were diluted in astrocyte media and directly applied to astrocyte monolayers. The cultures were treated for 48 hours prior to reactive species of oxygen (ROS) detection. The compounds used in the experiment were epicatechin (E4018 Sigma Aldrich, 10 μM), luteolin (L9283 Sigma-Aldrich, 5 μM), resveratrol (R5010Sigma-Aldrich, 5 μM), apocynin (178385 Calbiochem, 300 μM), alpha lipoic acid (T5625, Sigma-Aldrich, 50 μg/mL). For neuronal co-cultures, the astrocytes were pre-treated for 48 hours with apocynin and the rosettes were plated on top of them. The co-cultures were carried for 3 more weeks and the medium containing apocynin was replaced three more times during the co-culture period.
A total of five compounds and their respective vehicles (ethanol (EtOH) or DMSO) were tested in SOD^G37R mutated astrocyte cultures to address their anti-oxidant potential (FIG. 4A).

[2] = tested on: HESC-derived motor neurons co-cultured with SOD1^G37R astrocytes; test: Co-culture of HESC-derived motor neurons with SOD1 astrocytes, quantification of ChAT-positive cells; format: cell-based, human; details: astrocytes pre-treated 48 hours with apocynin, co-culture 3 more weeks
Procedure: Culture conditions and differentiation of HESC. The HUES cells lines used in this study were HUES9 (Douglas Melton-WiCell) and Cythera 203 (Novocell Inc. San Diego, Calif.). The HESC were differentiated in vitro in motor neurons, adapting the protocol previously described elsewhere (Li et al., 2005). Briefly, the cells were manually dissociated to form embryoid bodies (EBs) and cultured in suspension for 5-6 days. The EBs were then plated in laminin/poli-ornithin coated plates in the presence of a neural induction medium consisting of F12/DMEM (Invitrogen, Carlsbad, Calif.), N2 supplement and 1 μM retinoic acid (RA). The cells started to organize into neural tube-like rosettes and, after 7-8 days in culture, sonic hedgehog (SHH, 500 ng/ml, R&D Systems) and cAMP (1 μM) were added to the culture media for 1 more week. The rosettes were then manually selected using a 10× magnifier (Zeiss) and gently dissociated (by pipetting up and down in a Hanks' enzyme free cell dissociation buffer-Invitrogene). After dissociation, rosettes were pelleted at 1,000 rpm and re-plated either on laminin/poli-ornithine coated coverslips (for direct differentiation) or on top of astrocyte feeder layers for the co-culture experiments. […]

| SMILES | BAFF mRNA (primary human astrocytes) | IL23 (IL23p19) mRNA (primary human astrocytes) | iNOS mRNA (primary human astrocytes) | percentage of cells that were able to produce ROS (percentage of oxidation) [1] | other results |
| --- | --- | --- | --- | --- | --- |
| C[C@]12CC[C@@H]3c4ccc(O)cc4CC[C@H]3[C@@H]1CC[C@@H]2O [Estradiol, 17β-Estradiol] | not | not | not |  |  |
| Oc1ccc(-n2nc3ccc(O)cc3c2Br)cc1 [Indazol-Br] | repress | repress | repress |  | TGFβ mRNA (primary human microglia): do not repress; induction of IL1β mRNA (primary human microglia): repress; induction of IL23 (IL23p19) mRNA (primary human microglia): repress |
| Oc1ccc(-n2nc3ccc(O)cc3c2Cl)cc1 [Indazol-Cl] | repress | repress | repress |  | TGFβ mRNA (primary human microglia): do not repress; induction of IL1β mRNA (primary human microglia): repress; induction of IL23 (IL23p19) mRNA (primary human microglia): repress |
| O=C(O)CCCCC1CCSS1 (stereo not drawn) [alpha-lipoic acid, alpha lipoic acid] |  |  |  | decreased the percentage of cells that were able to produce ROS |  |
| COc1cc(C(C)=O)ccc1O [apocynin] |  |  |  | decreased the percentage of cells that were able to produce ROS; also recorded: decreased the ROS production | motor neuron survival (ChAT-positive cells) [2]: restored motor neuron survival; also recorded: recovery of motor neuron survival; motor neuron survival (ChAT-positive cells) ([2]; listed as Apocynin): rescued the motor neuron survival |
| O=c1cc(-c2ccc(O)c(O)c2)oc2cc(O)cc(O)c12 [luteolin] |  |  |  | did not seem to have a detectable effect |  |
| Oc1ccc(C=Cc2cc(O)cc(O)c2)cc1 [resveratrol] |  |  |  | did not seem to have a detectable effect |  |
